Test results reported in patent publication EP4417602A1, “SUBSTITUTED PYRAZOLE CARBOXAMIDES, SALTS THEREOF AND THEIR USE AS HERBICIDALLY ACTIVE SUBSTANCES” (Bayer AG, priority 2023, dated 2024).

Key:
DIGSA [1] = test: B. Herbicidal post-emergence action on harmful plants (Tables B); assay type: in vivo, Digitaria sanguinalis; settings: application rate 1280 g/ha; Table B12a
How it was run: (§1)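 Greenhouse weeds grown in sandy loam were sprayed post-emergence at the one-leaf stage, 2-3 weeks after sowing. Compounds were applied as WP or EC in water with 0.5% additive at 600 L/ha, at 1280 g/ha or below. Visual damage was rated after about 3 weeks versus untreated plants (0-100%).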

DIGSA [2] = test: A. Herbicidal pre-emergence action on harmful plants (Tables A); assay type: in vivo, Digitaria sanguinalis; settings: application rate 1280 g/ha; Table A12a
How it was run: (§2)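 Values are visual percent damage relative to untreated controls, scored ca. 3 weeks after the compound was sprayed on the covering soil of sown pots (sandy loam) at rates up to 1280 g/ha, formulated as WP or EC with 0.5% additive.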

KCHSC = test: B. Herbicidal post-emergence action on harmful plants (Tables B); assay type: in vivo, Kochia scoparia
Experimental: (§3) Seeds of mono- and dicotyledonous weed plants were placed in plastic pots in sandy loam soil (doubly sown with in each case one species of mono- or dicotyledonous weed plants per pot), covered with soil and cultivated in a greenhouse under controlled growth conditions. 2 to 3 weeks after sowing, the test plants were treated at the one-leaf stage. The compounds of the invention, formulated in the form of wettable powders (WP) or as emulsion concentrates (EC), were applied onto the green parts of the plants as aqueous suspension or emulsion with addition of 0.5% additive at a water application rate of 600 liters per hectare (converted). After the test plants had been kept in the greenhouse under optimum growth conditions for about 3 weeks, the activity of the preparations was rated visually in comparison to untreated controls. For example, 100% activity = the plants have died, 0% activity = like control plants. Tables B1 to B12, below, show the effects of selected compounds of the general formula (I) according to table 1 on various harmful plants and an application rate corresponding to 1280 g/ha or below obtained by the experimental procedure mentioned above. Table B1a: post-emergence activity at 1280g/ha against ABUTH in %

SETVI = test: A. Herbicidal pre-emergence action on harmful plants (Tables A); assay type: in vivo, Setaria viridis; settings: application rate 1280 g/ha; visual grading after ca. 3 weeks vs untreated controls; 100% = plants have died off, 0% = as control plants
How it was run: as §2

MATIN = test: B. Herbicidal post-emergence action on harmful plants (Tables B); assay type: in vivo, Matricaria inodora; settings: application rate 1280 g/ha; Table B4a
How it was run: as §1

POAAN [3] = test: A. Herbicidal pre-emergence action on harmful plants (Tables A); assay type: in vivo, Poa annua; settings: application rate 1280 g/ha; visual grading after ca. 3 weeks vs untreated controls; 100% = plants have died off, 0% = as control plants
How it was run: as §2

ECHCG = test: as above; assay type: in vivo, Echinochloa crus-galli; settings: application rate 1280 g/ha; visual grading after ca. 3 weeks vs untreated controls; 100% = plants have died off, 0% = as control plants
How it was run: as §2

AMARE [4] = test: B. Herbicidal post-emergence action on harmful plants (Tables B); assay type: in vivo, Amaranthus retroflexus; settings: application rate 1280 g/ha; Table B8
Experimental: as §3

AMARE [5] = test: A. Herbicidal pre-emergence action on harmful plants (Tables A); assay type: in vivo, Amaranthus retroflexus; settings: application rate 1280 g/ha; visual grading after ca. 3 weeks vs untreated controls; 100% = plants have died off, 0% = as control plants
How it was run: as §2

POAAN [6] = test: B. Herbicidal post-emergence action on harmful plants (Tables B); assay type: in vivo, Poa annua; settings: application rate 1280 g/ha; Table B7a
How it was run: as §1

VERPE = test: A. Herbicidal pre-emergence action on harmful plants (Tables A); assay type: in vivo, Veronica persica; settings: application rate 1280 g/ha; Table A11
From the text: Seeds of mono- and dicotyledonous weed plants were sown in plastic pots (double sowings with one species of mono- and one species of dicotyledonous weed plants per pot), in sandy loam, and covered with soil. The compounds according to the invention, formulated in the form of wettable powders (WP) or as emulsifiable concentrates (EC), were applied to the surface of the covering soil as aqueous suspension or emulsion, with the addition of 0.5% of an additive, at an application rate of 6001 of water per hectare (converted). Following treatment, the pots were placed in a greenhouse and kept under optimum growth conditions for the test plants. The visual grading of the damage to the test plants was carried out after ca. 3 weeks in comparison to untreated controls (herbicidal effect in percent (%): 100% effect = plants have died off, 0% effect = as control plants). Tables A1 to A12, below, show the effects of selected compounds of the general formula (I) according to table 1 on various harmful plants and an application rate corresponding to 1280 g/ha or below obtained by the experimental procedure mentioned above. Table A1: pre-emergence activity at 1280g/ha against ABUTH in %

ALOMY = test: as above; assay type: in vivo, Alopecurus myosuroides; settings: application rate 1280 g/ha; Table A9a
How it was run: as §2

STEME = test: as above; assay type: in vivo, Stellaria media; settings: application rate 1280 g/ha; visual grading after ca. 3 weeks vs untreated controls; 100% = plants have died off, 0% = as control plants
How it was run: as §2

[7] = application rate 1280 g/ha, Table B10a

Row | Structure (SMILES) | post-emergence activity against DIGSA (DIGSA [1]) [%] | pre-emergence activity against DIGSA (DIGSA [2]) [%] | post-emergence activity against KCHSC (KCHSC; application rate 320 g/ha, Table B10b) [%] | post-emergence activity against KCHSC (KCHSC; [7]) [%] | pre-emergence activity against SETVI (SETVI) [%] | post-emergence activity against MATIN (MATIN) [%] | pre-emergence activity against POAAN (POAAN [3]) [%] | pre-emergence activity against ECHCG (ECHCG) [%] | post-emergence activity against AMARE (AMARE [4]) [%] | pre-emergence activity against AMARE (AMARE [5]) [%] | post-emergence activity against POAAN (POAAN [6]) [%] | pre-emergence activity against VERPE (VERPE) [%] | pre-emergence activity against ALOMY (ALOMY) [%] | pre-emergence activity against STEME (STEME) [%]
1 | CC(C)COCc1nn(C)cc1C(=O)N1CCCC1Cc1cc(F)ccc1F (racemic) [Example I-009] | 100 | 90 | 100 | 100 | 100 | 90 | 100 | 100 | 90 | 100 |  |  |  | 
2 | Cn1ncc(C(=O)N2CCCC2Cc2ccccc2F)c1COCC(F)(F)F (racemic) [Example I-163] |  | 90 |  | 90 |  |  | 100 | 90 |  |  | 100 | 100 | 100 | 90
